Data on 16 compounds can be found in patent US20250034159A1, “INHIBITORS OF EPIDERMAL GROWTH FACTOR RECEPTOR” (ORIC Pharmaceuticals, Inc., priority 2021, published 2025).

Where two headings read alike, the source gives them in different places.

Assay [1] concerns the target recombinant human EGFR exon 19 deletion/C797S double mutant protein (Homo sapiens (Human), UniProt P00533, C797S/DEL746-750). As to the kind of experiment: Biological Activity Assay C: biochemical assay against EGFR exon 19 deletion/C797S protein (EGFR d19/CS). The procedure:
In Row A of a 384-well polypropylene plate, was added 48 μL of DMSO. In wells A1 and A24, were added 12 μL of DMSO. […] To a well in Row A were added 12 μL of each 10 mM test compound stock (100% DMSO). […] The final intermediate dilution plate contained 4×16-point compound serial dilutions in assay buffer. The DMSO concentration was 10%. The intermediate compound dilution plate was transferred to the Bravo and the “5 uL dispense into ARP.pro” protocol was run. To the black low volume assay ready plates, were added 5 μL of 40 uM Phosphosens peptide sensor/4 mM ATP working solution to each well. […] To column 24, was added 10 μL of assay buffer. The final DMSO concentration was 2.5%. […] The plates were sealed with the TopSeal-A Plus plate seals. […] Set for 90 cycles with 120 second interval. […] The slope of each curve was constructed using Dotmatics in each well, and each IC50s was calculated using a 4-parameter fit model.

Assay [2] concerns Ba/F3_EGFR WT cells. The assay can be described thus: Biological Activity Assay D: BaF3 cell proliferation assay, EGFR wild-type (BaF3 WT). The class given is cell-based. The settings on record: Ba/F3 EGFR, read-out: BaF3 WT IC50. The method, then:
(§1) One frozen vial of cells should be thawed into one T25 flask in 10 mL media. Keep the flask upright in the incubator.
(§2) Method: One frozen vial of cells was thawed into one T25 flask in 10 mL media and the flask was kept upright in the incubator. Cells were split 1:10 every two to three days when cells reached confluency of around 1×10^6 cells/mL. Bravo protocol files were used with Greiner 384-well plates for all steps of compound preparation, cell plating and compound addition. […] 16 μL of DMSO were added (for compounds starting at 20 μM) or 28 μL DMSO (for compounds starting at 5 μM) to 96-well V-bottom polypropylene plate: wells 1A-1H (8 compounds/plate). […] 20 μL DMSO were added to the remainder of the wells (columns 2-12) in the 96-well V-bottom plate. A Bravo liquid handler was used to make 1:3 serial dilutions from columns 1 to 11 (12 remains as DMSO only) to prepare the DMSO dilution plate. 144 μL media were added to each well of a new 96-well V-bottom polypropylene plate to prepare the intermediate dilution plate. A Bravo or 96-head Integra liquid handler was used to add and mix 6 μL of test compound from the DMSO dilution plate to the intermediate dilution plate. (1:25 dilution). Cells were transferred from a flask into a 50 mL conical, vortex gently and the number of cells were counted, with a target cell number of about 1×10^6 cells per mL. The cells were diluted in culture medium in 50 mL conical or T25 flask, and the cell suspension was added to BRAVO reservoir and then use Bravo protocol to plate the appropriate number of cells shown below in 36 μl of medium per well as follows: Ba/F3-WT-EGFR 2000 cells per well of a 384 well plate; Ba/F3-LR/CS-EGFR 2000 cells per well of a 384 well plate; and Ba/F3-d19/CS-EGFR 1500 cells per well of a 384 well plate. An extra 10 mL of dead volume was utilized in each reservoir.
(§3) Using a Bravo liquid handler, 4 μl of test compound solution was added per well from the intermediate dilution plate to plated cells (1:10 dilution from the intermediate plate, final compound dilution 1:250 and final DMSO concentration per well is 0.4%). Using the 96 BRAVO Head, 25 μl were aspirated from the intermediate dilution plate and 4 μl each were dispensed into 4 wells (square pattern) in the 384-well plate. Any remaining test compound is dispensed into a secondary plate to prevent cross contamination of cells in the intermediate compound plate. After the compounds were added, the plate was shaken at 600 rpm gently for 60 see, and the plates were incubated in a tissue culture incubator, 37° C., 5% CO2, for ˜ 72 hours. After incubation, CTG 2.0 reagent was allowed to equilibrate to room temperature (˜3 hours) and cells to reach room temperature (˜10-15 minutes) and reagent was added to cells (40 μL/well) using a Bravo liquid handler. The plates were shaken to allow proper mixing (˜5 min) and let settle for 10 minutes and were read on Tecan plate reader using the appropriate luminescence method. Data from plate reader was transferred to an excel file and entered directly into Dotmatics using the protocols under EGFR Project/Cell Proliferation/named: “BaF3_EGFRwt_CP”, “BaF3_EGFR_d19/CS_CP”, “BaF3_EGFR_LR/CS_CP”. Curves were fit with a 4-parameter model and IC50s calculated by the Dotmatics software. DMSO wells were averaged to define the high control (100% growth). The average of the highest concentration of the positive control compound (afatinib) was used to define the 0% growth and used to lock the bottom of the curves. The tops of the curves were not fixed.

The subject of assay [3] is BaF3_EGFR LR/CS cells. As to the kind of experiment: Biological Activity Assay D: BaF3 cell proliferation assay, EGFR L858R/C797S mutant (BaF3 LR/CS). The class given is cell-based. The following applies: Ba/F3 EGFR, read-out: BaF3 LR/CS IC50. The method, then:
as §1, §2, §3

For assay [4], the system named is BaF3_EGFR d19/CS cells. The assay can be described thus: Biological Activity Assay D: BaF3 cell proliferation assay, EGFR exon 19 deletion/C797S (BaF3 d19/CS). The settings on record: Ba/F3 EGFR, read-out: BaF3 d19/CS IC50. The class given is cell-based. The procedure: as §1, §2, §3
[5] abbreviates: Ba/F3_EGFR WT cells, ~72 hours, CellTiter-Glo.
[6] abbreviates: BaF3_EGFR LR/CS cells, ~72 hours, CellTiter-Glo.
[7] abbreviates: BaF3_EGFR d19/CS cells, ~72 hours, CellTiter-Glo.

Chain of recombinant human EGFR exon 19 deletion/C797S double mutant protein (P00533 other isoform, or with tags, fused parts or gaps C797S/del 1-668/del 746-750 limits assumed): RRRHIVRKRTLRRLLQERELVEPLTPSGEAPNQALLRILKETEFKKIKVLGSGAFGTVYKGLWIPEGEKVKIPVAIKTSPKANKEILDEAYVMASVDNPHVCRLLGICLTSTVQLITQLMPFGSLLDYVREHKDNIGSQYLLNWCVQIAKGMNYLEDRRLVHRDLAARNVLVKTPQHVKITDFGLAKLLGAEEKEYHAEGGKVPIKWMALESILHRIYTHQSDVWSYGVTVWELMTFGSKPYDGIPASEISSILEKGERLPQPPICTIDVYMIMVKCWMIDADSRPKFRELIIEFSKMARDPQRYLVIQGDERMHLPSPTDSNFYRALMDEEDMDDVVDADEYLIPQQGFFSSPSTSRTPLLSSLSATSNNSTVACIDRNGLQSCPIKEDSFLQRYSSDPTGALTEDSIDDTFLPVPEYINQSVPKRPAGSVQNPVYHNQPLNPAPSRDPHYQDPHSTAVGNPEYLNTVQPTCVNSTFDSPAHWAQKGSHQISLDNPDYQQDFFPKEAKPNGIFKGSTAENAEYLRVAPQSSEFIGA

`CC1(C)C[C@H](n2cc(-c3ncnc4oc(-c5ccccc5)cc34)c(-c3ccc(F)cc3)n2)CO1` (single isomer, unassigned) [Example 238]: the IC50 in assay [1] stood at 0.62 nM; in assay [2] (setting [5]), 2070 nM; in assay [3] (setting [6]), 31 nM; in assay [4] (setting [7]) it was 52.1 nM.
As to `N=[S@]1(=O)CC[C@H](n2cc(-c3ncnc4oc(-c5ccccc5)cc34)c(-c3ccc(F)cc3)n2)C1` (single isomer, unassigned) [Example 246], the IC50 in assay [1] turned out to be 0.06 nM; in assay [2] (setting [5]) it was 876 nM; in assay [3] (setting [6]), 10.6 nM; in assay [4] (setting [7]) it was 26.9 nM.
On to `N=[S@@]1(=O)CC[C@@H](n2cc(-c3ncnc4oc(-c5ccccc5)cc34)c(-c3ccc(F)cc3)n2)C1` (single isomer, unassigned) [Example 247], for which the IC50 was determined as 0.09 nM in assay [1], 1360 nM in assay [2] (setting [5]), 8.8 nM in assay [3] (setting [6]) and 26.9 nM in assay [4] (setting [7]).
For `Cn1cnc(-c2cc3c(-c4cn(C5CC5(F)F)nc4-c4ccc(F)cc4)ncnc3o2)c1` (single isomer, unassigned) [Example 273], the IC50 in assay [1] is 0.291 nM; in assay [2] (setting [5]), 834 nM; in assay [3] (setting [6]), 22.9 nM; in assay [4] (setting [7]), 24.8 nM.
With `Cn1cnc(-c2cc3c(-c4cn([C@H]5CC5(F)F)nc4-c4ccc(F)cc4)ncnc3o2)c1` (single isomer, unassigned) [Example 274], the IC50 came to 0.213 nM in assay [1], 721 nM in assay [2] (setting [5]), 16.1 nM in assay [3] (setting [6]) and 23.5 nM in assay [4] (setting [7]).
For the compound `O[C@H]1C[C@@H](n2cc(-c3ncnc4oc(-c5ccccc5)cc34)c(-c3ccc(F)cc3)n2)C1` [Example 120, (1s,3s)-3-(3-(4-Fluorophenyl)-4-(6-phenylfuro[2,3-d]pyrimidin-4-yl)-1H-pyrazol-1-yl)cyclobutan-1-ol], the IC50 in assay [1] stood at 0.12 nM; in assay [2] (setting [5]), 633 nM; in assay [3] (setting [6]), 8.82 nM; in assay [4] (setting [7]), 17.1 nM.
Take `O[C@H]1C[C@H](n2cc(-c3ncnc4oc(-c5ccccc5)cc34)c(-c3ccc(F)cc3)n2)C1` [Example 121, (1r,3r)-3-(3-(4-Fluorophenyl)-4-(6-phenylfuro[2,3-d]pyrimidin-4-yl)-1H-pyrazol-1-yl)cyclobutan-1-ol]: the IC50 turned out to be 0.14 nM in assay [1], 1180 nM in assay [2] (setting [5]), 12.6 nM in assay [3] (setting [6]) and 29.8 nM in assay [4] (setting [7]).
For the compound `Fc1ccc(-c2nn(CC3CC(F)(F)C3)cc2-c2ncnc3oc(-c4ccccc4)cc23)cc1` [Example 123, 4-{1-[(3,3-difluorocyclobutyl)methyl]-3-(4-fluorophenyl)-1H-pyrazol-4-yl}-6-phenylfuro[2,3-d]pyrimidine], the IC50 worked out at 2.89 nM in assay [1], 3890 nM in assay [2] (setting [5]), 96.1 nM in assay [3] (setting [6]) and 260 nM in assay [4] (setting [7]).
On to `Fc1ccc(-c2nn(C[C@H]3C[C@H](F)C3)cc2-c2ncnc3oc(-c4ccccc4)cc23)cc1` [Example 124, 4-[1-{[(1r,3r)-3-fluorocyclobutyl]methyl}-3-(4-fluorophenyl)-1H-pyrazol-4-yl]-6-phenylfuro[2,3-d]pyrimidine], for which the IC50 in assay [1] worked out at 3.02 nM; in assay [2] (setting [5]), 4270 nM; in assay [3] (setting [6]), 230 nM; in assay [4] (setting [7]), 611 nM.
The like results for `O=S1(=O)CC(n2cc(-c3ncnc4[nH]c(-c5ccccc5)nc34)c(-c3ccc(F)cc3)n2)C1` [Example 127, 3-[3-(4-Fluorophenyl)-4-(8-phenyl-9H-purin-6-yl)-1H-pyrazol-1-yl]-1λ6-thietane-1,1-dione] were, in that order, 0.09 nM, 3680 nM, 15.8 nM and 24.6 nM.
For the compound `CC(C)(O)Cn1cc(-c2ncnc3[nH]c(-c4ccccc4)nc23)c(-c2ccc(F)cc2)n1` [Example 130, 1-[3-(4-Fluorophenyl)-4-(8-phenyl-9H-purin-6-yl)-1H-pyrazol-1-yl]-2-methylpropan-2-ol], the IC50 amounted to 0.12 nM in assay [1], 2340 nM in assay [2] (setting [5]), 10.1 nM in assay [3] (setting [6]) and 12 nM in assay [4] (setting [7]).
`CS(=O)(=O)CCn1cc(-c2ncnc3[nH]c(-c4ccccc4)nc23)c(-c2ccc(F)cc2)n1` [Example 131, 6-{3-(4-fluorophenyl)-1-[2-(methanesulfonyl)ethyl]-1H-pyrazol-4-yl}-8-phenyl-9H-purine]: the IC50 in assay [1] is 1.04 nM; in assay [2] (setting [5]), 3000 nM; in assay [3] (setting [6]), 81.9 nM; in assay [4] (setting [7]), 162 nM.
The corresponding values for `CC(C)(C)OC(=O)N1CC(C#Cc2cc3c(-c4cn(C5CS(=O)(=O)C5)nc4-c4ccc(F)cc4)ncnc3o2)C1` [Example 132, tert-butyl 3-({4-[1-(1,1-dioxo-1λ6-thietan-3-yl)-3-(4-fluorophenyl)-1H-pyrazol-4-yl]furo[2,3-d]pyrimidin-6-yl}ethynyl)azetidine-1-carboxylate] are 1.51 nM, 5490 nM, 1160 nM and 860 nM.
With `O=S1(=O)CC(n2cc(-c3ncnc4oc(C#CC5CNC5)cc34)c(-c3ccc(F)cc3)n2)C1` [Example 133, 3-[4-{6-[(azetidin-3-yl)ethynyl]furo[2,3-d]pyrimidin-4-yl}-3-(4-fluorophenyl)-1H-pyrazol-1-yl]-1λ6-thietane-1,1-dione], the IC50 is 7.1 nM in assay [1], 7550 nM in assay [2] (setting [5]), 2190 nM in assay [3] (setting [6]) and 1190 nM in assay [4] (setting [7]).
Regarding `CC(=O)NCCn1cc(-c2ncnc3oc(-c4ccccc4)cc23)c(-c2ccc(F)cc2)n1` [Example 134, N-{2-[3-(4-Fluorophenyl)-4-(6-phenylfuro[2,3-d]pyrimidin-4-yl)-1H-pyrazol-1-yl]ethyl}acetamide], the IC50 in assay [1] turned out to be 0.3 nM; in assay [2] (72 h) it was 1030 nM; in assay [3] (72 h), 33.3 nM; in assay [4] (72 h) it was 57.1 nM.
Regarding `FCCn1cc(-c2ncnc3oc(-c4ccccc4)cc23)c(-c2ccc(F)cc2)n1` [Example 135, 4-[1-(2-Fluoroethyl)-3-(4-fluorophenyl)-1H-pyrazol-4-yl]-6-phenylfuro[2,3-d]pyrimidine], the IC50 in assay [1] was 0.33 nM; in assay [2] (setting [5]), 1160 nM; in assay [3] (setting [6]), 17.1 nM; in assay [4] (setting [7]), 31.9 nM.
